Laboratory results taken from the supplement of paper PMC10307832.

Key:
Test in all cases: relative viability (nuclei count vs DMSO), 5 days (fraction); higher = more cells survive
[1] = compound: CCC1=CN=CN=C1N2CCN(CC2)CC3=NC4=C(N3)C=C(C=C4)C(F)(F)F + Nc1ncn([C@H]2C[C@H](O)[C@@H](CO)O2)c(=O)n1 [Decitabine] (partner 2 µM)
In short: (§1)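 Dosing by pin tool came one day after lung cancer cell lines were seeded in 1536-well plates, using either one drug or a fixed anchor-drug dose plus five library-drug doses (not always all listed) in √10 steps. After 5 days, nuclei were counted on 4× images. Relative viability is treated-well nuclei count divided by vehicle-well nuclei count, and values are medians of duplicate plates.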

[2] = compound: CCC1=CN=CN=C1N2CCN(CC2)CC3=NC4=C(N3)C=C(C=C4)C(F)(F)F + Nc1nc2[nH]cc(CCc3ccc(C(=O)N[C@@H](CCC(=O)O)C(=O)O)cc3)c2c(=O)[nH]1 [Pemetrexed] (partner 0.2 µM)
In short: as §1

[3] = compound: N=C1NC(=O)/C(=C/c2ccc(O)cc2)S1 [Mirin] + CC(=O)Nc1cccc(-n2c(=O)n(C3CC3)c(=O)c3c(Nc4ccc(I)cc4F)n(C)c(=O)c(C)c32)c1 [Trametinib] (partner 0.02 µM)
In short: as §1

[4] = compound: CCC1=CN=CN=C1N2CCN(CC2)CC3=NC4=C(N3)C=C(C=C4)C(F)(F)F + NC(=O)Nc1cc(-c2cccc(F)c2)sc1C(=O)N[C@H]1CCCNC1 [AZD7762] (partner 0.2 µM)
In short: as §1

| Cell Line | relative viability ([1]; first compound 0.04 µM) | relative viability ([1]; first compound 0.1265 µM) | relative viability ([1]; first compound 0.4 µM) | relative viability ([1]; first compound 1.265 µM) | relative viability ([1]; first compound 4 µM) | relative viability ([2]; first compound 0.04 µM) | relative viability ([2]; first compound 0.1265 µM) | relative viability ([2]; first compound 0.4 µM) | relative viability ([2]; first compound 1.265 µM) | relative viability ([2]; first compound 4 µM) | relative viability ([3]; first compound 0.25 µM) | relative viability ([3]; first compound 0.7906 µM) | relative viability ([3]; first compound 2.5 µM) | relative viability ([3]; first compound 7.906 µM) | relative viability ([3]; first compound 25 µM) | relative viability ([4]; first compound 0.04 µM) | relative viability ([4]; first compound 0.1265 µM) | relative viability ([4]; first compound 0.4 µM) | relative viability ([4]; first compound 1.265 µM) | relative viability ([4]; first compound 4 µM) |
| --- | --- | --- | --- | --- | --- | --- | --- | --- | --- | --- | --- | --- | --- | --- | --- | --- | --- | --- | --- | --- |
| NCI-H520 | 0.598 | 0.414 | 0.426 | 0.424 | 0.436 | 0.667 | 0.719 | 0.762 | 0.576 | 0.602 | 0.542 | 0.571 | 0.659 | 0.603 | 0.477 |  |  |  |  |  |
| NCI-H661 | 0.557 | 0.522 | 0.524 | 0.472 | 0.55 | 0.908 | 0.973 | 0.941 | 0.921 | 0.921 | 0.59 | 0.722 | 0.628 | 0.482 | 0.575 |  |  |  |  |  |
| NCI-H727 | 0.798 | 0.875 | 0.956 | 0.655 | 0.941 |  |  |  |  |  | 0.443 | 0.348 | 0.41 | 0.341 | 0.34 | 0.641 | 0.593 | 0.522 | 0.566 | 0.541 |
| NCI-H1563 |  |  |  |  |  | 0.6 | 0.619 | 0.834 | 0.598 | 0.887 |  |  |  |  |  |  |  |  |  |  |
| NCI-H1650 | 0.372 | 0.419 | 0.377 | 0.417 | 0.536 | 0.456 | 0.333 | 0.401 | 0.364 | 0.393 | 0.534 | 0.544 | 0.579 | 0.551 | 0.62 |  |  |  |  |  |
| NCI-H1703 |  |  |  |  |  |  |  |  |  |  |  |  |  |  |  |  | 0.148 | 0.125 |  | 0.126 |
| NCI-H2009 | 0.381 | 0.348 | 0.361 | 0.37 | 0.373 | 0.98 | 1.02 | 0.951 | 0.992 | 1.08 | 0.277 | 0.334 | 0.334 | 0.293 | 0.282 |  |  |  |  |  |
| NCI-H2023 | 0.21 | 0.218 | 0.224 | 0.215 | 0.252 | 0.452 | 0.25 | 0.204 | 0.239 | 0.232 | 0.716 | 0.558 | 0.668 | 0.56 | 0.597 |  |  |  |  |  |
| NCI-H2228 |  |  |  |  |  |  | 0.363 | 0.335 | 0.303 | 0.294 | 0.627 | 0.39 | 0.551 | 0.382 | 0.423 |  |  |  |  |  |
| SK-LU-1 | 0.512 | 0.6 | 0.623 | 0.605 | 0.614 | 0.892 | 0.992 | 0.958 | 0.985 | 0.998 | 0.519 | 0.519 | 0.568 | 0.383 | 0.538 |  |  |  |  |  |
| SK-MES-1 | 0.34 | 0.386 | 0.373 | 0.372 | 0.361 | 1.03 | 1.01 | 1 | 0.993 | 1.03 | 0.505 | 0.569 | 0.571 | 0.585 | 0.716 |  |  |  |  |  |
| SW 1573 | 0.471 | 0.425 | 0.57 | 0.378 | 0.478 | 0.884 | 0.947 | 0.83 | 0.747 | 0.885 | 0.647 | 0.557 | 0.567 | 0.51 | 0.369 |  |  |  |  |  |
